Experimental findings from patent publication US4292249A, “25-Hydroxy-24-oxocholestane derivatives and preparation thereof” (priority 1979, dated 1981) are described below.

The target of test [1] is T1, 1α,25-dihydroxy cholecalciferol-receptor in the chick's intestinal tube (Gallus gallus, UniProt O42392).
T1 construct: 1α,25-dihydroxy cholecalciferol-receptor in the chick's intestinal tube; from tissue; host or cells: chick intestine
T1 sequence (O42392 1-451): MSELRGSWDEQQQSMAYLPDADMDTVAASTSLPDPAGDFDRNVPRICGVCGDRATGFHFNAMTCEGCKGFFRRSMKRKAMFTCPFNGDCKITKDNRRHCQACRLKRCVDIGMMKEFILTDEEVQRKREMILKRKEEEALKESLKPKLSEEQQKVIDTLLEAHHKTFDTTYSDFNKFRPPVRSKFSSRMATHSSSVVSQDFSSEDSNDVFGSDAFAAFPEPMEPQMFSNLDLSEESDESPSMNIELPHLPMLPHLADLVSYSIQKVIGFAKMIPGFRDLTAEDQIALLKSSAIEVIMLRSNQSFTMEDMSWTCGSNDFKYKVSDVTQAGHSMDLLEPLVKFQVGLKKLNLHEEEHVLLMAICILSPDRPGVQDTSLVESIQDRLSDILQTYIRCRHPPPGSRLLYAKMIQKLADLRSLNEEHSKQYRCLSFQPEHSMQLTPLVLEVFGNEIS
Description: Combination (binding) with the 1α,25-dihydroxy cholecalciferol-receptor, competitive displacement.

In test [2] the test system is calcium absorption at the intestinal tube. Description: Effect to promote calcium absorption from the intestinal tract (everted gut sac method). Format: in vivo, Wistar male rats. As to conditions: vitamin D-deficient rats, 250 ng/head intravenously, measured 4, 8, 24 and 48 hour later. How it is done: They were killed 4 hour, 8 hour, 24 hour and 48 hour later, and calcium absorption at the intestinal tube was measured by the everted gut sac method [see Martin, D. L. and Deluca, H. F., Amer, J. Physiol.

`C=C1/C(=C\C=C2/CCC[C@]3(C)[C@@H]([C@H](C)CCC(=O)C(C)(C)O)CC[C@@H]23)C[C@@H](O)C[C@@H]1O` [1α,25-dihydroxy-24-oxo-cholecarciferol, 1α,25-dihydroxy-24-oxo cholecalciferol]: the “50% Displacement” value in test [1] (chick intestinal receptor) is given as 138 pg. Besides, the Molar ratio in test [1] (relative to 1α,25-dihydroxy cholecalciferol = 1) turned out to be 3.
As for `C=C1CC[C@H](O)C/C1=C/C=C1\CCC[C@]2(C)[C@@H]([C@H](C)CCC(=O)C(C)(C)O)CC[C@@H]12` [25-hydroxy-24-oxo-cholecalciferol, 25-hydroxy-24-oxocholecalciferol], in test [2], the “time after administration at which the effect on intestinal calcium absorption showed” value was “about 4 hours” and the “time for which the effect on intestinal calcium absorption continued” value came out at 44 h.
